31 compounds from patent publication US20240360082A1, “SUBSTITUTED PYRIDONE COMPOUNDS USEFUL TO TREAT ORTH[…]” (priority 2021, published 2024) can be followed below.

Chain of influenza A virus minigenome (PB2, PB1, PA, NP proteins) (P04665 whole entry): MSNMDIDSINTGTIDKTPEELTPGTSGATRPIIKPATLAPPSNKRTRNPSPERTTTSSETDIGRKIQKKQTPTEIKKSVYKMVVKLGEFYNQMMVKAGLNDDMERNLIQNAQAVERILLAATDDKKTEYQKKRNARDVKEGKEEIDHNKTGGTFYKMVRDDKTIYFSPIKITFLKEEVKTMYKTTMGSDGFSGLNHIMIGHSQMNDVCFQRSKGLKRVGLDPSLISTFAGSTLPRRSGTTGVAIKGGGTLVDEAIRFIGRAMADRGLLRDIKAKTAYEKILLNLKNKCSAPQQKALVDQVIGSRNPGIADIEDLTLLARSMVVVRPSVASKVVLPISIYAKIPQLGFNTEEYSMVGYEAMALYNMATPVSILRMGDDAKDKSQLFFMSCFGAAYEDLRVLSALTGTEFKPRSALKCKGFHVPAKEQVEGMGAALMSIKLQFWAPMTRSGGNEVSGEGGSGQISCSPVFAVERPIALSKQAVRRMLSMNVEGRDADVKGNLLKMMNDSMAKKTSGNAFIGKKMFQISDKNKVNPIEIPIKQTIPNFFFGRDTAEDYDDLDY

One test concerns the target influenza A virus minigenome (PB2, PB1, PA, NP proteins) (UniProt P04665). It is filed as cell-based. Particulars: read-out: RNP_ Hubei B IC50.
`C[C@]1(COCC(F)F)COC[C@@H](COc2ccc(-c3cc(C(N)=O)c(=O)[nH]c3C(F)(F)F)cc2)O1` [Example 431, 5-(4-(((2S,6R)-6-((2,2-difluoroethoxy)methyl)-6-methyl-1,4-dioxan-2-yl)methoxy)phenyl)-2-oxo-6-(trifluoromethyl)-1,2-dihydropyridine-3-carboxamide]: the IC50 was in the range of 5 to 10 µM. Turning to `NC(=O)c1cc(-c2ccc(OCC3COCC(Cn4cccc4)O3)cc2)c(C(F)(F)F)[nH]c1=O` (single isomer, unassigned) [Example 374, 5-(4-((6-((1H-pyrrol-1-yl)methyl)-1,4-dioxan-2-yl)methoxy)phenyl)-2-oxo-6-(trifluoromethyl)-1,2-dihydropyridine-3-carboxamide], the IC50 lay within 5 to 10 µM. As for `NC(=O)c1cc(-c2ccc(OCC3COCCO3)cc2)c(C(F)(F)F)[nH]c1=O` (single isomer, unassigned) [Example 238, 5-(4-((1,4-dioxan-2-yl)methoxy)phenyl)-2-oxo-6-(trifluoromethyl)-1,2-dihydropyridine-3-carboxamide], the IC50 lay within 25 to 50 µM. On to `CC(C)n1ncc2c1COCC2COc1ccc(-c2cc(C(N)=O)c(=O)[nH]c2C(F)(F)F)cc1` (single isomer, unassigned) [Example 293, 5-(4-((1-isopropyl-1,4,5,7-tetrahydropyrano[3,4-c]pyrazol-4-yl)methoxy)phenyl)-2-oxo-6-(trifluoromethyl)-1,2-dihydropyridine-3-carboxamide], for which the IC50 lay within 5 to 10 µM. On to `NC(=O)c1cc(-c2ccc(OC[C@H]3COC[C@@H](C4CC4)O3)cc2)c(C(F)(F)F)[nH]c1=O` [Example 325, 5-(4-(((2R,6R)-6-cyclopropyl-1,4-dioxan-2-yl)methoxy)phenyl)-2-oxo-6-(trifluoromethyl)-1,2-dihydropyridine-3-carboxamide], for which the IC50 lay in the range of 10 to 25 µM. In the case of `CCN1CC(COc2ccc(-c3cc(C(N)=O)c(=O)[nH]c3C(F)(F)F)cc2)OC1=O` (stereo not shown) [Example 234, 5-(4-((3-ethyl-2-oxooxazolidin-5-yl)methoxy)phenyl)-2-oxo-6-(trifluoromethyl)-1,2-dihydropyridine-3-carboxamide], the IC50 was 25 to 50 µM. Consider `CC(C)n1cc2c(n1)COCC2COc1ccc(-c2cc(C(N)=O)c(=O)[nH]c2C(F)(F)F)cc1` (single isomer, unassigned) [Example 296, 5-(4-((2-isopropyl-2,4,5,7-tetrahydropyrano[3,4-c]pyrazol-4-yl)methoxy)phenyl)-2-oxo-6-(trifluoromethyl)-1,2-dihydropyridine-3-carboxamide], for which the IC50 fell in the range of 5 to 10 µM. With `NC(=O)c1cc(-c2ccc(OC[C@@H]3COC[C@H](C4CC4)O3)cc2)c(C(F)(F)F)[nH]c1=O` [Example 404, 5-(4-(((2S,6S)-6-cyclopropyl-1,4-dioxan-2-yl)methoxy)phenyl)-2-oxo-6-(trifluoromethyl)-1,2-dihydropyridine-3-carboxamide], the IC50 was 10 to 25 µM.

Regarding `NC(=O)c1cc(-c2ccc(OCC3(F)COC3)cc2)c(C(F)(F)F)[nH]c1=O` [Example 226, 5-(4-((3-fluorooxetan-3-yl)methoxy)phenyl)-2-oxo-6-(trifluoromethyl)-1,2-dihydropyridine-3-carboxamide], the IC50 was 25 to 50 µM. In the case of `NC(=O)c1cc(-c2ccc(OCC3COCCO3)c(C3CC3)c2)c(C(F)(F)F)[nH]c1=O` (stereo not shown) [Example 243, 5-(4-((1,4-dioxan-2-yl)methoxy)-3-cyclopropylphenyl)-2-oxo-6-(trifluoromethyl)-1,2-dihydropyridine-3-carboxamide], the IC50 was in the range of 1 to 5 µM. The same measure, in the same setting: the same measure for `C[C@]1(CCF)COC[C@@H](COc2ccc(-c3cc(C(N)=O)c(=O)[nH]c3C(F)(F)F)cc2)O1` [Example 435, 5-(4-(((2S,6S)-6-(2-fluoroethyl)-6-methyl-1,4-dioxan-2-yl)methoxy)phenyl)-2-oxo-6-(trifluoromethyl)-1,2-dihydropyridine-3-carboxamide]: 5 to 10 µM; for `COC(C)(C)COCC1COCC(COc2ccc(-c3cc(C(N)=O)c(=O)[nH]c3C(F)(F)F)cc2)O1` (single isomer, unassigned) [Example 370, 5-(4-((6-((2-methoxy-2-methylpropoxy)methyl)-1,4-dioxan-2-yl)methoxy)phenyl)-2-oxo-6-(trifluoromethyl)-1,2-dihydropyridine-3-carboxamide]: 5 to 10 µM; for `NC(=O)c1cc(-c2ccc(OCC3COCC(=O)N3)cc2)c(C(F)(F)F)[nH]c1=O` (stereo not shown) [Example 250, 2-oxo-5-(4-((5-oxomorpholin-3-yl)methoxy)phenyl)-6-(trifluoromethyl)-1,2-dihydropyridine-3-carboxamide]: 25 to 50 µM.

Staying with this test, now noted: read-out: RNP_Hubei B.
`NC(=O)c1cc(-c2ccc(OCc3ccccc3)cc2)c(C(F)(F)F)[nH]c1=O` [Example 4, 5-(4-(benzyloxy)phenyl)-2-oxo-6-(trifluoromethyl)-1,2-dihydropyridine-3-carboxamide]: the IC50 fell in the range of 5 to 10 µM. Take `NC(=O)c1cc(-c2ccc(OCc3ccc4no[n+]([O-])c4c3)cc2)c(C(F)(F)F)[nH]c1=O` [Example 94]: the IC50 fell in the range of 25 to 50 µM.

Turning to `NC(=O)c1cc(-c2ccc(C(c3cnco3)N3CCOCC3)cc2)c(C(F)(F)F)[nH]c1=O` (stereo not shown) [Example 48, 5-(4-(morpholino(oxazol-5-yl)methyl)phenyl)-2-oxo-6-(trifluoromethyl)-1,2-dihydropyridine-3-carboxamide], the IC50 lay in the range of 25 to 50 µM. Same read-out and setting: the same measure for `NC(=O)c1cc(-c2ccc(OCc3ccn4nnnc4c3)cc2)c(C(F)(F)F)[nH]c1=O` [Example 90, 2-oxo-5-(4-(tetrazolo[1,5-a]pyridin-7-ylmethoxy)phenyl)-6-(trifluoromethyl)-1,2-dihydropyridine-3-carboxamide]: 25 to 50 µM; for `CC(Oc1ccc(-c2cc(C(N)=O)c(=O)[nH]c2C(F)(F)F)cc1)c1cccnc1` (single isomer, unassigned) [Example 80, (R or S)-2-oxo-5-(4-(1-(pyridin-3-yl)ethoxy)phenyl)-6-(trifluoromethyl)-1,2-dihydropyridine-3-carboxamide]: 10 to 25 µM; for `CC1(C2COCC(COc3ccc(-c4cc(C(N)=O)c(=O)[nH]c4C(F)(F)F)cc3)O2)CC1` (single isomer, unassigned) [Example 357, 5-(4-((6-(1-methylcyclopropyl)-1,4-dioxan-2-yl)methoxy)phenyl)-2-oxo-6-(trifluoromethyl)-1,2-dihydropyridine-3-carboxamide]: 5 to 10 µM. As for `NC(=O)c1cc(-c2ccc(OCc3ccc(Cl)nc3)cc2)c(C(F)(F)F)[nH]c1=O` [Example 176, 5-(4-((6-chloropyridin-3-yl)methoxy)phenyl)-2-oxo-6-(trifluoromethyl)-1,2-dihydropyridine-3-carboxamide], the IC50 fell in the range of 25 to 50 µM.

Turning to `NC(=O)c1cc(-c2ccc(O)cc2)c(C(F)(F)F)[nH]c1=O` [Example 3, 5-(4-hydroxyphenyl)-2-oxo-6-(trifluoromethyl)-1,2-dihydropyridine-3-carboxamide], the IC50 was 25 to 50 µM.

With `COC1CCOC(COc2ccc(-c3cc(C(N)=O)c(=O)[nH]c3C(F)(F)F)cc2)C1` (single isomer, unassigned) [Example 202, 5-(4-((4-methoxytetrahydro-2H-pyran-2-yl)methoxy)phenyl)-2-oxo-6-(trifluoromethyl)-1,2-dihydropyridine-3-carboxamide], the IC50 fell in the range of 10 to 25 µM. Same read-out and setting: for `N#Cc1cccc(COc2ccc(-c3cc(C(N)=O)c(=O)[nH]c3C(F)(F)F)cc2)c1` [Example 78, 5-(4-((3-cyanobenzyl)oxy)phenyl)-2-oxo-6-(trifluoromethyl)-1,2-dihydropyridine-3-carboxamide] the value was 25 to 50 µM; for `NC(=O)c1cc(-c2ccc(OCC3CNC(=O)C3)cc2)c(C(F)(F)F)[nH]c1=O` (stereo not shown) [Example 88, 2-oxo-5-(4-((5-oxopyrrolidin-3-yl)methoxy)phenyl)-6-(trifluoromethyl)-1,2-dihydropyridine-3-carboxamide], 5 to 10 µM; for `CC(Oc1ccc(-c2cc(C(N)=O)c(=O)[nH]c2C(F)(F)F)cc1)c1ccc2nonc2c1` (single isomer, unassigned) [Example 100, (R or S)-5-(4-(1-(benzo[c][1,2,5]oxadiazol-5-yl)ethoxy)phenyl)-2-oxo-6-(trifluoromethyl)-1,2-dihydropyridine-3-carboxamide], 5 to 10 µM. Consider `NC(=O)c1cc(-c2ccc(OCc3cccc(C(F)(F)F)c3)cc2)c(C(F)(F)F)[nH]c1=O` [Example 79, 2-oxo-6-(trifluoromethyl)-5-(4-((3-(trifluoromethyl)benzyl)oxy)phenyl)-1,2-dihydropyridine-3-carboxamide], for which the IC50 lay within 5 to 10 µM. With `CN(C)C(=O)c1ccc(COc2ccc(-c3cc(C(N)=O)c(=O)[nH]c3C(F)(F)F)cc2)cc1` [Example 60, 5-(4-((4-(dimethylcarbamoyl)benzyl)oxy)phenyl)-2-oxo-6-(trifluoromethyl)-1,2-dihydropyridine-3-carboxamide], the IC50 fell in the range of 25 to 50 µM. On to `NC(=O)c1cc(-c2ccc(CN3CCCOCC3)cc2)c(C(F)(F)F)[nH]c1=O` [Example 34, 5-(4-((1,4-oxazepan-4-yl)methyl)phenyl)-2-oxo-6-(trifluoromethyl)-1,2-dihydropyridine-3-carboxamide], for which the IC50 was 25 to 50 µM. `CC(Oc1ccc(-c2cc(C(N)=O)c(=O)[nH]c2C(F)(F)F)cc1)c1cncnc1` (single isomer, unassigned) [Example 95, (R or S)-2-oxo-5-(4-(1-(pyrimidin-5-yl)ethoxy)phenyl)-6-(trifluoromethyl)-1,2-dihydropyridine-3-carboxamide]: the IC50 lay within 25 to 50 µM.

For the compound `CN1CCCC(COc2ccc(-c3cc(C(N)=O)c(=O)[nH]c3C(F)(F)F)cc2)C1` (stereo not shown) [Example 92, 5-(4-((1-methylpiperidin-3-yl)methoxy)phenyl)-2-oxo-6-(trifluoromethyl)-1,2-dihydropyridine-3-carboxamide], the IC50 lay in the range of 25 to 50 µM. Take `NC(=O)c1cc(-c2ccc(OCC3CN(C4COC4)CCCO3)cc2)c(C(F)(F)F)[nH]c1=O` (stereo not shown) [Example 196, 5-(4-((4-(oxetan-3-yl)-1,4-oxazepan-2-yl)methoxy)phenyl)-2-oxo-6-(trifluoromethyl)-1,2-dihydropyridine-3-carboxamide]: the IC50 fell in the range of 25 to 50 µM.
